Consider one compound from patent US20150150892A1, “METHODS AND PRODUCTS RELATED TO LUNG CANCER” (Massachusetts Institute of Technology, priority 2012, published 2015).

The test system of series [1] is KP mice. Briefly: Kaplan-Meier survival of KP mice. The format is in vivo, mouse. The following applies: KP mice, bortezomib 1 mg/kg once a week for 4 weeks from 8 weeks after Adeno-Cre; control 76.8±10.6 days; P=0.001.
Procedure: (5A and 5B) Kaplan-Meier survival curve of vehicle control and bortezomib-treated KP (5A) and K (5B) mice. Arrows indicate weekly 1 mg/kg bortezomib regimen. […] Arrows indicate bortezomib injection.
To initiate lung tumors, cohorts of K or KP mice of 129svJae background were infected with 2.5×10^7 plaque-forming units of Adeno-Cre (University of Iowa) by intranasal inhalation, as described previously (2, 28). Mice were given bortezomib (LC Labs) in PBS [0.5% dimethylsulfoxide (DMSO)] at 1 mg/kg body weight i.v., as indicated.
To analyze the long-term effects of bortezomib therapy, we investigated whether a 4-dose regimen of bortezomib (19) could prolong survival of tumor-bearing mice. Using a cohort of KP mice, we treated tumor-bearing animals 8 weeks after Adeno-Cre infection with bortezomib once a week for 4 weeks (FIG. 10A).
The conditions of series [2]: cited from earlier work.
Series [3] deals with NF-κB target genes. Kind of series: Quantitative PCR of NF-κB target genes in KP cells. The series is classed as cell-based, mouse. The method, then: FIG. 1. Bortezomib inhibits NF-κB signaling and induces apoptosis in murine lung adenocarcinoma cell lines. (1A) reduction of nuclear p65 level by bortezomib. Two KP (KrasLSL-G12D/wt;p53flox/flox) cell lines (KP1 and KP2) were treated with 5 nM bortezomib (BZ) or vehicle control (ctrl) for 24 hours. Nuclear (N) and cytoplasmic (C) fractions of protein lysates were immunoblotted with the indicated antibodies. NEMO and Parp serve as cytoplasmic and nuclear loading controls, respectively. (1B) quantitative PCR analysis of a subset of NF-κB target genes in 5 nM bortezomib (BZ)-treated KP cells at the indicated time points. Vehicle control is set to 1. (1C) apoptosis in KP and KP^M (KrasLSL-G12D/wt;p53R127H/−) cells induced by bortezomib. Cells were pre-treated with 5 nM bortezomib for 24 hours, and protein lysates were immunoblotted with CC3 and tubulin antibodies. (1D) quantification of cell death in bortezomib-treated cells. Cells were treated with the indicated concentrations of bortezomib for 24 hours, and dead cells were quantified by Trypan blue staining. Error bars are SD (n=3).
FIG. 7: The NF-κB inhibitor Bay-117082 leads to lung tumor regression in vivo. (7A) quantitative PCR analysis of NF-κB target gene expression in KP cells treated with 10 μM Bay-117082 for indicated hours. Error bars are SD (n=3). (7B) Bay-117082 treatment leads to lung tumor regression and delays tumor progression in the orthotopic lung tumor model. A total of 50,000 luciferase-tagged KP cells were transplanted into recipient mice (n=6), and treatment was started at 19 days after transplantation (set at D0). Mice were treated with vehicle control or 10 mg/kg Bay-117082 by i.p. injection, and imaged at the indicated time points. Arrows indicate Bay-117082 injections. (7C) Bay-117082 prolongs survival in the KP model (n=6; P=0.008). “i.p. dosing” indicates treatment with 3 doses per week.
RNA was purified using TRIzol (Invitrogen), according to the manufacturer's instructions. One microgram of RNA was reverse transcribed using the High-Capacity cDNA Reverse Transcription Kit (Applied Biosystems). Real-time PCR (quantitative PCR) amplification was performed using Taqman probes (Applied Biosystems). Data were normalized to the Gapdh (mouse) or GAPDH (human) levels.

The test system of series [4] is LKR13 cells and 3TZ fibroblasts. Kind of series: Trypan blue quantification of cell death, control cells. The series is classed as cell-based, mouse. The note with it: 24 hours.
[5] abbreviates: 5 nM bortezomib, time course, KP cells.

The compound `CC(C)C[C@H](NC(=O)[C@H](Cc1ccccc1)NC(=O)c1cnccn1)B(O)O` [bortezomib, N-(2-pyrazine) carbonyl-L-phenylalanine-L-leucine boronic acid] displayed a survival in series [1] of 104.2 ± 19.8 days. Moreover, the half-life in vivo result in series [2] is reported as “short half-life”. Also, the “I16 mRNA level” value in series [3] (5 nM bortezomib, KP cells) was “increased”. Moreover, in series [3] (setting [5]), the “expression of inflammation NF-κB targets I16, Tnf, Mmp3” value is given as “not reduced”; the “expression of proliferation related NF-κB target genes c-Myc and Cyclin D1” value is listed as “reduced expression”. In series [3] (5 nM bortezomib, time course, KP cells, real-time PCR), the “expression of NF-κB-regulated antiapoptosis genes Bcl2, Bclx1, Birc2 (cIAP1), Birc5 (Survivin)” value is reported as “consistently downregulated”. Besides, in series [3] (KP cells in vitro, FIG. 1B and FIG. 7A), the “Bcl2 and Myc inhibition, bortezomib compared with Bay-117082” value was “more robust”. Besides, the “cell death by Trypan blue counting” value in series [4] is given as “did not show substantial cell death”.
